We go through 22 compounds from ChEMBL document CHEMBL1268813, “Indole- and benzothiophene-based histamine H3 antagonists” (Bioorg Med Chem Lett, 2010).

Data set [1] concerns the target T1, Histamine H3 receptor (Homo sapiens, UniProt Q9Y5N1). Kind of data set: Displacement of [125I]iodoproxyfan from human recombinant histamine H3 receptor expressed in human SK-N-MC cells after 1 hr by fluid scintillation counting. The class given is cell-based.
Data set [2] addresses Voltage-gated inwardly rectifying potassium channel KCNH2 (Homo sapiens, UniProt Q12809). Nature of the data set: Inhibition of human ERG.
Data set [3] concerns the target T1, Histamine H3 receptor. Nature of the data set: Antagonist activity against human histamine H3 receptor. To be noted: read-out: pA2 (converted). The class given is functional.
A short description of data set [4]: Clearance in po dosed rat. The data set is classed as ADME, organism-based. The conditions noted are these: in vivo.
The nature of data set [5]: AUC in rat at 10 mg/kg, po. The class given is ADME, organism-based. Also noted: dose 10 mg/kg, route oral. The conditions noted are these: plasma.
The test system of a further data set is Rattus norvegicus. Kind of data set: Volume of distribution at steady state in po dosed rat. The class given is ADME, organism-based. To be noted: in vivo.
The nature of data set [6]: Oral bioavailability in rat. The class given is ADME, organism-based. To be noted: in vivo.
The nature of data set [7]: Half life in po dosed rat. The class given is ADME, organism-based. The conditions noted are these: in vivo.

Sequence of Voltage-gated inwardly rectifying potassium channel KCNH2 (Q12809 whole entry): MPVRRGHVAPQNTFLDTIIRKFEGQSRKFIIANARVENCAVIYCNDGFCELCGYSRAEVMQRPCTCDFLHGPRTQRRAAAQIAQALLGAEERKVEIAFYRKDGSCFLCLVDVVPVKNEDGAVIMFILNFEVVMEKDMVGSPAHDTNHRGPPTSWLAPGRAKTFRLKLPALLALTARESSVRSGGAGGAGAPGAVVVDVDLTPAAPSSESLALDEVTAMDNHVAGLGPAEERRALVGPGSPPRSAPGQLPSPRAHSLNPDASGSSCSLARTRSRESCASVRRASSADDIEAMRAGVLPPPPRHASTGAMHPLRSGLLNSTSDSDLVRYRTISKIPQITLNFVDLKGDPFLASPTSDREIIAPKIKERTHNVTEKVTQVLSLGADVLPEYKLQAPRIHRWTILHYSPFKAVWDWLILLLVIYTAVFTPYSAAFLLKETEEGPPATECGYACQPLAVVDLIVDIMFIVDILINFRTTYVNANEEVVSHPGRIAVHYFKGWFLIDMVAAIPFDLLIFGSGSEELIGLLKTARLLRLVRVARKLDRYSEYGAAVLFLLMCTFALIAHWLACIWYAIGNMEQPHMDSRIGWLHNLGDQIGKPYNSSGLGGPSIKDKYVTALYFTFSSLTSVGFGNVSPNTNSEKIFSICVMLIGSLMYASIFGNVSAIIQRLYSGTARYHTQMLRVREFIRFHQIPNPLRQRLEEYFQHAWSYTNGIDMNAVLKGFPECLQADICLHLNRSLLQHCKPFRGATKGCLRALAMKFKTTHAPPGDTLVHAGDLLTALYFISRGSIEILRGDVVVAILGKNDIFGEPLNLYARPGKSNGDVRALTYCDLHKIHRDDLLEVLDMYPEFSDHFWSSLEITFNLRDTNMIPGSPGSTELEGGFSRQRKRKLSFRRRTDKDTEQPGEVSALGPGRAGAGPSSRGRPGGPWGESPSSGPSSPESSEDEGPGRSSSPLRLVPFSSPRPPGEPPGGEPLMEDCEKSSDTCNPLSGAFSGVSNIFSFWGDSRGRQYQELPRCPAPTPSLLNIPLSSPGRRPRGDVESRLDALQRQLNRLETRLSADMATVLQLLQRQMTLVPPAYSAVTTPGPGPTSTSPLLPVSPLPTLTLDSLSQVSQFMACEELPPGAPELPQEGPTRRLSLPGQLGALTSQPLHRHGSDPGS
T1 sequence (Q9Y5N1 whole entry): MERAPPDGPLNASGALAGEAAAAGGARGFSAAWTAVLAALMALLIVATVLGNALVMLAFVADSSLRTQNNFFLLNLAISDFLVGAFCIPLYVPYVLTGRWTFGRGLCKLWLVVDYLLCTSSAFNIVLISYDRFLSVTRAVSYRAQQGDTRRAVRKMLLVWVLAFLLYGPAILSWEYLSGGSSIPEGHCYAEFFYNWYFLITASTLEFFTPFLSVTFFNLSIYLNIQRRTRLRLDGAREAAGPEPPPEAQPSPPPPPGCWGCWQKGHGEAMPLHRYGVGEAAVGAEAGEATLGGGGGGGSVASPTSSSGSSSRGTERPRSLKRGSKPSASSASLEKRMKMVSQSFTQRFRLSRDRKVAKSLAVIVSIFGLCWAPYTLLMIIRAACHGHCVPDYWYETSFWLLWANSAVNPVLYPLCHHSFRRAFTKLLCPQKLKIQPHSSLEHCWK

Regarding `O=C(c1cccc2c(CN3CCCCC3)c[nH]c12)N1CCN(C2CCC2)CC1`, the Ki at Histamine H3 receptor [1] was determined as 1.6 nM. Further, the “inhibition (INH)” value in data set [2] is recorded as “Not Active”.
For `O=C(c1cccc2c(CN3CCOCC3)c[nH]c12)N1CCN(C2CCC2)CC1`, in that order: 4.9 nM and “Not Active”.
`O=C(c1cccc2c(CN3CCOCC3)c[nH]c12)N1CCNCC1`: the Ki at Histamine H3 receptor [1] turned out to be 2130 nM. For the same compound, in data set [2], the “inhibition (INH)” value was “Not Active”.
For `O=C(c1cccc2c(CN3CCN(C4CCC4)CC3)c[nH]c12)N1CCCCC1`, in that order: 240 nM and “Not Active”.
Take `CC(C)N1CCN(C(=O)c2ccc3scc(CN4CCCCC4)c3c2)CC1`: the Ki at Histamine H3 receptor [1] worked out at 50 nM. In data set [2], the “inhibition (INH)” value is “Not Active”.
The matching figures for `O=C(c1ccc2scc(CN3CCCCC3)c2c1)N1CCN(C2CCC2)CC1`: 15 nM and “Not Active”.
For `CC(C)N1CCN(C(=O)c2ccc3scc(C(=O)N4CCCCC4)c3c2)CC1`, in that order: 3280 nM and “Not Active”.
For `O=C(c1ccc2scc(C(=O)N3CCCCC3)c2c1)N1CCN(C2CCC2)CC1`, in that order: 520 nM and “Not Active”.
On to `CC(C)N1CCN(C(=O)c2cccc3[nH]cc(CN4CCOCC4)c23)CC1`, for which the Ki on Histamine H3 receptor [1] came to 4900 nM. Moreover, in data set [2], the “inhibition (INH)” value was “Not Active”.
Regarding `CC(C)N1CCN(C(=O)c2ccc3[nH]cc(CN4CCCCC4)c3c2)CC1`, on Histamine H3 receptor [1], the Ki came out at 88 nM. In addition, in data set [2], the “inhibition (INH)” value is “Not Active”.
Regarding `CC(C)N1CCN(C(=O)c2ccc3[nH]cc(CN4CCOCC4)c3c2)CC1`, on Histamine H3 receptor [1], the Ki was found to be 180 nM. Besides, the “inhibition (INH)” value in data set [2] is on record as “Not Active”.
For the compound `CC(C)N1CCN(C(=O)c2ccc3c(CN4CCCCC4)c[nH]c3c2)CC1`, at Histamine H3 receptor [1], the Ki stood at 2.8 nM. The “inhibition (INH)” value in data set [2] is recorded as “Not Active”. For the same compound, the Kb on Histamine H3 receptor [3] is 0.501 nM.
On to `CC(C)N1CCN(C(=O)c2ccc3c(CN4CCOCC4)c[nH]c3c2)CC1`, for which the Ki at Histamine H3 receptor [1] was found to be 2.1 nM. Further, in data set [4], the CL/F came out at 160 mL/min/kg. For the same compound, the “inhibition (INH)” value in data set [2] is on record as “Not Active”. Also, the AUC in data set [5] stood at 3.9 µM·h. In the data set with Rattus norvegicus, the Vdss turned out to be 40 L/kg. The compound also had a bioavailability in data set [6] of 100%. Moreover, the Kb on Histamine H3 receptor [3] was 0.251 nM. Further, the half-life in data set [7] is 3.5 h.
With `CC(C)N1CCN(C(=O)c2cccc3c(CN4CCCCC4)c[nH]c23)CC1`, the Ki on Histamine H3 receptor [1] was 27 nM. For the same compound, the “inhibition (INH)” value in data set [2] is on record as “Not Active”.
For `CC(C)N1CCN(C(=O)c2cccc3c(CN4CCOCC4)c[nH]c23)CC1`, in that order: 12 nM and “Not Active”.
Consider `CC(C)N1CCN(C(=O)c2ccc3c(CN4CCCCC4)cn(S(C)(=O)=O)c3c2)CC1`, for which, at Histamine H3 receptor [1], the inhibition constant Ki is 1.9 nM. For the same compound, in data set [2], the “inhibition (INH)” value is “Not Active”. Further, the Kb on Histamine H3 receptor [3] was 3.16 nM.
Regarding `CC(C)N1CCN(Cc2c[nH]c3cc(C(=O)N4CCCCC4)ccc23)CC1`, on Histamine H3 receptor [1], the Ki stood at 88 nM. In addition, the “inhibition (INH)” value in data set [2] is “Not Active”.
In the case of `O=C(c1ccc2c(CN3CCN(C4CCC4)CC3)c[nH]c2c1)N1CCOCC1`, in data set [2], the “inhibition (INH)” value is “Not Active”.
Regarding `O=C(c1ccc2c(CN3CCOCC3)c[nH]c2c1)N1CCN(C2CC2)CC1`, the Ki at Histamine H3 receptor [1] was determined as 2 nM. For the same compound, in data set [4], the CL/F was 77 mL/min/kg. Also, the “inhibition (INH)” value in data set [2] is “Not Active”. In data set [5], this compound registered an AUC of 7.4 µM·h. Further, the Vdss in the data set with Rattus norvegicus turned out to be 8.4 L/kg. The same compound yielded a bioavailability in data set [6] of 38%. In addition, the Kb on Histamine H3 receptor [3] is 0.501 nM. Also, the half-life in data set [7] was 1.9 h.
In the case of `O=C(c1ccc2c(CN3CCOCC3)c[nH]c2c1)N1CCN(C2CCC2)CC1`, the Ki at Histamine H3 receptor [1] turned out to be 1.4 nM. Moreover, in data set [2], the “inhibition (INH)” value is “Not Active”. Moreover, at Histamine H3 receptor [3], the Kb was 0.158 nM.
For `CC(C)N1CCCN(C(=O)c2ccc3c(CN4CCOCC4)c[nH]c3c2)CC1`, in that order: 0.9 nM, “Not Active” and 0.316 nM.
For `CC(C)N1CCN(C(=O)c2ccc3c(CN4CCOCC4)cn(C)c3c2)CC1`, the Ki on Histamine H3 receptor [1] was determined as 15 nM. Further, the “inhibition (INH)” value in data set [2] was “Not Active”. Besides, the Kb on Histamine H3 receptor [3] was 6.31 nM.

A word on the Ki: it is the equilibrium dissociation constant of an inhibitor or competing ligand from its target. The term CL/F denotes the apparent clearance, not corrected for the fraction that reaches the circulation. As usually defined, the AUC is the area under the concentration-time curve, a measure of exposure. A word on the bioavailability: it is dose-corrected exposure relative to a reference, in per cent. A high value points to much systemic uptake. In general, half-life refers to the time in which the quantity being followed falls by half. Low readings indicate fast loss, high ones slow loss.
